We go through 31 molecules from ChEMBL document CHEMBL1697731, “Cheminformatics analysis of assertions mined from literature that describe drug-induced liver injury in different species” (Chem Res Toxicol, 2010).

Molecules are shown by their SMILES.

Data set [1] has as its system Hepatotoxicity. Description: Literature-mined compound from Fourches et al multi-species drug-induced liver injury (DILI) dataset, effect in non-rodents.
The subject of data set [2] is Hepatotoxicity. In words: Literature-mined compound from Fourches et al multi-species drug-induced liver injury (DILI) dataset, effect in humans. The note with it: human.
Data set [3] concerns Hepatotoxicity. In words: Literature-mined compound from Fourches et al multi-species drug-induced liver injury (DILI) dataset, effect in rodents. The note with it: rodentia.

For `C#C[C@]1(O)CC[C@H]2[C@@H]3CCC4=Cc5oncc5C[C@]4(C)[C@H]3CC[C@@]21C` [DANAZOL], the figures for the Hepatotoxicity entry in the data set with Hepatotoxicity [1], in the data set with Hepatotoxicity [2] and in the data set on Hepatotoxicity [3] were “no drug-induced liver injury reported”, “drug-induced liver injury reported” and “no drug-induced liver injury reported”, respectively.
Take `O=C1c2cccc(O)c2C(=O)c2c(O)cccc21` [DANTHRON]: the Hepatotoxicity entry is reported as “no drug-induced liver injury reported” in the data set on Hepatotoxicity [1], “no drug-induced liver injury reported” in the data set on Hepatotoxicity [2] and “drug-induced liver injury reported” in the data set on Hepatotoxicity [3].
Take `O=C1CN(/N=C/c2ccc(-c3ccc([N+](=O)[O-])cc3)o2)C(=O)[N-]1.[Na+]` [DANTROLENE SODIUM]: the Hepatotoxicity entry in the data set on Hepatotoxicity [1] is recorded as “no drug-induced liver injury reported”; with Hepatotoxicity [2] it was “no drug-induced liver injury reported”; in the data set on Hepatotoxicity [3], “drug-induced liver injury reported”.
As for `Nc1ccc(S(=O)(=O)c2ccc(N)cc2)cc1` [DAPSONE], the Hepatotoxicity result is “no drug-induced liver injury reported” in the data set with Hepatotoxicity [1] (Liver), “drug-induced liver injury reported” with Hepatotoxicity [2] (Liver) and “no drug-induced liver injury reported” in the data set on Hepatotoxicity [3] (Liver).
With `COc1cccc2c1C(=O)c1c(O)c3c(c(O)c1C2=O)C[C@@](O)(C(C)=O)C[C@@H]3O[C@H]1C[C@H](N)[C@H](O)[C@H](C)O1` [DAUNORUBICIN], the Hepatotoxicity entry is “no drug-induced liver injury reported” in the data set with Hepatotoxicity [1], “drug-induced liver injury reported” with Hepatotoxicity [2] and “drug-induced liver injury reported” in the data set with Hepatotoxicity [3].
For `Nc1ncn([C@H]2C[C@H](O)[C@@H](CO)O2)c(=O)n1` [DECITABINE], the Hepatotoxicity result is “no drug-induced liver injury reported” in the data set on Hepatotoxicity [1], “drug-induced liver injury reported” in the data set on Hepatotoxicity [2] and “no drug-induced liver injury reported” in the data set on Hepatotoxicity [3].
Take `O=C(O)c1ccc(-n2nc(-c3ccccc3O)nc2-c2ccccc2O)cc1` [DEFERASIROX]: the Hepatotoxicity entry in the data set with Hepatotoxicity [1] is “no drug-induced liver injury reported”; in the data set on Hepatotoxicity [2], “drug-induced liver injury reported”; in the data set on Hepatotoxicity [3], “no drug-induced liver injury reported”.
As for `CC(=O)N(O)CCCCCNC(=O)CCC(=O)N(O)CCCCCNC(=O)CCC(=O)N(O)CCCCCN` [DEFEROXAMINE], the Hepatotoxicity entry in the data set with Hepatotoxicity [1], in the data set on Hepatotoxicity [2] and in the data set on Hepatotoxicity [3] was “drug-induced liver injury reported” throughout.
Regarding `C[C@H](CCC(=O)O)[C@H]1CC[C@H]2[C@@H]3C(=O)C[C@@H]4CC(=O)CC[C@]4(C)[C@H]3CC(=O)[C@]12C` [DEHYDROCHOLIC ACID], the Hepatotoxicity result in the data set on Hepatotoxicity [1] is reported as “no drug-induced liver injury reported”; in the data set on Hepatotoxicity [2] it was “no drug-induced liver injury reported”; in the data set with Hepatotoxicity [3], “drug-induced liver injury reported”.
Consider `CCC1=C(C[C@H]2NCCc3cc(OC)c(OC)cc32)C[C@H]2c3cc(OC)c(OC)cc3CCN2C1` [DEHYDROEMETINE], for which the Hepatotoxicity result in the data set with Hepatotoxicity [1] is on record as “no drug-induced liver injury reported”; in the data set with Hepatotoxicity [2] it was “no drug-induced liver injury reported”; with Hepatotoxicity [3], “drug-induced liver injury reported”.
As for `C#C[C@]1(O)CC[C@H]2[C@@H]3CCC4=CCCC[C@@H]4[C@H]3C(=C)C[C@@]21CC` [DESOGESTREL], the Hepatotoxicity entry in the data set on Hepatotoxicity [1] is recorded as “no drug-induced liver injury reported”; in the data set with Hepatotoxicity [2], “drug-induced liver injury reported”; with Hepatotoxicity [3], “no drug-induced liver injury reported”.
Consider `CN1C(=O)[C@@H](NC(=O)c2cc3ccccc3[nH]2)N=C(c2ccccc2)c2ccccc21` [DEVAZEPIDE], for which the Hepatotoxicity entry with Hepatotoxicity [1] was “no drug-induced liver injury reported”; in the data set with Hepatotoxicity [2] it was “no drug-induced liver injury reported”; in the data set on Hepatotoxicity [3] it was “drug-induced liver injury reported”.
Regarding `C[C@@H]1C[C@H]2[C@@H]3CCC4=CC(=O)C=C[C@]4(C)[C@@]3(F)[C@@H](O)C[C@]2(C)[C@@]1(O)C(=O)CO` [DEXAMETHASONE], the Hepatotoxicity result in the data set on Hepatotoxicity [1], with Hepatotoxicity [2] and in the data set with Hepatotoxicity [3] was “drug-induced liver injury reported” in each case.
For the molecule `CCN[C@@H](C)Cc1cccc(C(F)(F)F)c1` [DEXFENFLURAMINE], the Hepatotoxicity result is “no drug-induced liver injury reported” with Hepatotoxicity [1], “drug-induced liver injury reported” in the data set with Hepatotoxicity [2] and “drug-induced liver injury reported” with Hepatotoxicity [3].
Take `C[C@@H](CN1CC(=O)NC(=O)C1)N1CC(=O)NC(=O)C1` [DEXRAZOXANE]: the values for the Hepatotoxicity result with Hepatotoxicity [1], in the data set with Hepatotoxicity [2] and with Hepatotoxicity [3] were “no drug-induced liver injury reported”, “no drug-induced liver injury reported” and “drug-induced liver injury reported”, respectively.
With `O=C[C@H](O)[C@@H](O)[C@H](O)[C@H](O)CO[C@H]1O[C@H](CO[C@H]2O[C@H](CO)[C@@H](O)[C@H](O)[C@H]2O)[C@@H](O)[C@H](O)[C@H]1O` [DEXTRAN], the Hepatotoxicity result was “drug-induced liver injury reported” with Hepatotoxicity [1], “no drug-induced liver injury reported” with Hepatotoxicity [2] and “drug-induced liver injury reported” in the data set on Hepatotoxicity [3].
As to `C[C@H](N)Cc1ccccc1` [DEXTROAMPHETAMINE], the values for the Hepatotoxicity result in the data set with Hepatotoxicity [1], with Hepatotoxicity [2] and in the data set with Hepatotoxicity [3] were “no drug-induced liver injury reported”, “no drug-induced liver injury reported” and “drug-induced liver injury reported”, respectively.
`COc1ccc2c(c1)[C@]13CCCC[C@@H]1[C@H](C2)N(C)CC3` [DEXTROMETHORPHAN]: the Hepatotoxicity entry with Hepatotoxicity [1] is listed as “no drug-induced liver injury reported”; in the data set with Hepatotoxicity [2] it was “drug-induced liver injury reported”; with Hepatotoxicity [3], “no drug-induced liver injury reported”.
For `OC[C@H]1OC(O)[C@H](O)[C@@H](O)[C@@H]1O` (stereo partly drawn) [DEXTROSE], the Hepatotoxicity result with Hepatotoxicity [1], in the data set with Hepatotoxicity [2] and in the data set with Hepatotoxicity [3] was “drug-induced liver injury reported” in each case.
As for `CC(=O)Nc1c(I)c(NC(C)=O)c(I)c(C(=O)[O-])c1I.[Na+]` [DIATRIZOATE SODIUM], the Hepatotoxicity entry in the data set on Hepatotoxicity [1] is recorded as “no drug-induced liver injury reported”; with Hepatotoxicity [2], “no drug-induced liver injury reported”; in the data set with Hepatotoxicity [3], “drug-induced liver injury reported”.
On to `CN1C(=O)CN=C(c2ccccc2)c2cc(Cl)ccc21` [DIAZEPAM], for which the Hepatotoxicity entry in the data set on Hepatotoxicity [1] (Liver), in the data set on Hepatotoxicity [2] (Liver) and in the data set with Hepatotoxicity [3] (Liver) was “drug-induced liver injury reported” in each case.
In the case of `CC1=NS(=O)(=O)c2cc(Cl)ccc2N1` [DIAZOXIDE], the Hepatotoxicity entry with Hepatotoxicity [1] is reported as “no drug-induced liver injury reported”; with Hepatotoxicity [2], “drug-induced liver injury reported”; in the data set on Hepatotoxicity [3] it was “drug-induced liver injury reported”.
As to `O=c1oc2ccccc2c(O)c1Cc1c(O)c2ccccc2oc1=O` [DICUMAROL], the Hepatotoxicity result in the data set on Hepatotoxicity [1] is “no drug-induced liver injury reported”; in the data set with Hepatotoxicity [2], “drug-induced liver injury reported”; in the data set with Hepatotoxicity [3], “drug-induced liver injury reported”.
For the molecule `O=c1[nH]cnc2c1ncn2[C@H]1CC[C@@H](CO)O1` [DIDANOSINE], the Hepatotoxicity result in the data set with Hepatotoxicity [1] is “no drug-induced liver injury reported”; with Hepatotoxicity [2], “drug-induced liver injury reported”; in the data set with Hepatotoxicity [3] it was “drug-induced liver injury reported”.
Consider `C[C@]12CCC3=C4CCC(=O)C=C4CC[C@H]3[C@@H]1CC[C@@]2(O)CC#N` [DIENOGEST], for which the Hepatotoxicity entry was “no drug-induced liver injury reported” with Hepatotoxicity [1], “no drug-induced liver injury reported” in the data set on Hepatotoxicity [2] and “drug-induced liver injury reported” with Hepatotoxicity [3].
Take `CC/C(=C(/CC)c1ccc(O)cc1)c1ccc(O)cc1` [DIETHYLSTILBESTROL]: the Hepatotoxicity entry in the data set with Hepatotoxicity [1], in the data set on Hepatotoxicity [2] and in the data set with Hepatotoxicity [3] was “drug-induced liver injury reported” each time.
On to `CCN(CC)C(=O)c1cccc(C)c1` [DIETHYLTOLUAMIDE], for which the Hepatotoxicity entry with Hepatotoxicity [1] was “no drug-induced liver injury reported”; in the data set with Hepatotoxicity [2], “no drug-induced liver injury reported”; in the data set on Hepatotoxicity [3], “drug-induced liver injury reported”.
For `O=C(O)c1cc(-c2ccc(F)cc2F)ccc1O` [DIFLUNISAL], the Hepatotoxicity result with Hepatotoxicity [1] (Liver), in the data set with Hepatotoxicity [2] (Liver) and with Hepatotoxicity [3] (Liver) was “drug-induced liver injury reported” each time.
Regarding `C[C@H]1O[C@@H](O[C@H]2[C@@H](O)C[C@H](O[C@H]3[C@@H](O)C[C@H](O[C@H]4CC[C@@]5(C)[C@H](CC[C@@H]6[C@@H]5CC[C@]5(C)[C@@H](C7=CC(=O)OC7)CC[C@]65O)C4)O[C@@H]3C)O[C@@H]2C)C[C@H](O)[C@@H]1O` [DIGITOXIN], the Hepatotoxicity result in the data set with Hepatotoxicity [1] was “no drug-induced liver injury reported”; in the data set with Hepatotoxicity [2], “no drug-induced liver injury reported”; in the data set on Hepatotoxicity [3] it was “drug-induced liver injury reported”.
For `C[C@H]1O[C@@H](O[C@H]2[C@@H](O)C[C@H](O[C@H]3[C@@H](O)C[C@H](O[C@H]4CC[C@@]5(C)[C@H](CC[C@@H]6[C@@H]5C[C@@H](O)[C@]5(C)[C@@H](C7=CC(=O)OC7)CC[C@]65O)C4)O[C@@H]3C)O[C@@H]2C)C[C@H](O)[C@@H]1O` [DIGOXIN], the values for the Hepatotoxicity entry with Hepatotoxicity [1], in the data set with Hepatotoxicity [2] and with Hepatotoxicity [3] were “drug-induced liver injury reported”, “no drug-induced liver injury reported” and “drug-induced liver injury reported”, respectively.
For the molecule `NNc1nnc(NN)c2ccccc12` [DIHYDRALAZINE], the Hepatotoxicity entry with Hepatotoxicity [1] is “no drug-induced liver injury reported”; in the data set with Hepatotoxicity [2] it was “drug-induced liver injury reported”; with Hepatotoxicity [3] it was “drug-induced liver injury reported”.
